Data as given in the NIST ThermoML archive (doi:10.1016/j.jct.2005.07.009).

Assays:
[1] = xn = mol fraction of the nth substance listed; settings: 298.15 K, 101 kPa, Liquid, Vibrating tube method
[2] = excess molar enthalpy (molar enthalpy of mixing); xn = mol fraction of the nth substance listed; settings: 298.15 K, 101 kPa, Liquid

BrCCCCCCBr [1,6-dibromohexane] + CCCC(=O)OCC
Settings	excess molar enthalpy [kcal/mol]	mass density [kg/m3]
[1], x2 = 0.0741	–	1554.45
[1], x2 = 0.1407	–	1511.27
[1], x2 = 0.2026	–	1470.35
[1], x2 = 0.2669	–	1427.12
[1], x2 = 0.3292	–	1384.45
[1], x2 = 0.4493	–	1300.05
[1], x2 = 0.5934	–	1194.98
[1], x2 = 0.6267	–	1170.08
[1], x2 = 0.6854	–	1125.55
[1], x2 = 0.7302	–	1091.1
[1], x2 = 0.7843	–	1048.89
[1], x2 = 0.8939	–	961.41
[2], x2 = 0.0629	0.00655	–
[2], x2 = 0.1341	0.0105	–
[2], x2 = 0.2059	0.0133	–
[2], x2 = 0.2734	0.014	–
[2], x2 = 0.3411	0.0136	–
[2], x2 = 0.4017	0.0124	–
[2], x2 = 0.4524	0.0103	–
[2], x2 = 0.4952	0.00796	–
[2], x2 = 0.5312	0.00562	–
[2], x2 = 0.5662	0.00308	–
[2], x2 = 0.6022	0.000191	–
[2], x2 = 0.6161	-0.000359	–
[2], x2 = 0.6589	-0.00213	–
[2], x2 = 0.7115	-0.00304	–
[2], x2 = 0.7699	-0.00366	–
[2], x2 = 0.8324	-0.00347	–
[2], x2 = 0.8956	-0.00213	–
[2], x2 = 0.9514	-0.000884	–

BrCCCCCCBr [1,6-dibromohexane] + CCOC(C)=O
Settings	excess molar enthalpy [kcal/mol]	mass density [kg/m3]
[1], x2 = 0.1101	–	1558.02
[1], x2 = 0.2056	–	1515.22
[1], x2 = 0.2841	–	1476.78
[1], x2 = 0.3679	–	1432.01
[1], x2 = 0.4348	–	1393.28
[1], x2 = 0.5035	–	1350.27
[1], x2 = 0.623	–	1266.72
[1], x2 = 0.733	–	1177.88
[1], x2 = 0.8165	–	1101.03
[1], x2 = 0.8582	–	1059.17
[1], x2 = 0.8988	–	1015.65
[1], x2 = 0.9703	–	932.2
[2], x2 = 0.0852	0.0323	–
[2], x2 = 0.179	0.0516	–
[2], x2 = 0.2657	0.0644	–
[2], x2 = 0.3506	0.0739	–
[2], x2 = 0.4238	0.0791	–
[2], x2 = 0.489	0.0806	–
[2], x2 = 0.5186	0.0798	–
[2], x2 = 0.5344	0.0792	–
[2], x2 = 0.5598	0.078	–
[2], x2 = 0.6031	0.0735	–
[2], x2 = 0.6495	0.0677	–
[2], x2 = 0.7011	0.0608	–
[2], x2 = 0.7507	0.0522	–
[2], x2 = 0.8025	0.0431	–
[2], x2 = 0.8542	0.033	–
[2], x2 = 0.9062	0.0221	–
[2], x2 = 0.9578	0.0106	–

BrCCCCCBr [1,5-dibromopentane] + CCOC(C)=O
Settings	excess molar enthalpy [kcal/mol]	mass density [kg/m3]
[1], x2 = 0.0866	–	1642.62
[1], x2 = 0.1624	–	1595.36
[1], x2 = 0.2251	–	1554.67
[1], x2 = 0.2991	–	1504.62
[1], x2 = 0.3623	–	1460.11
[1], x2 = 0.4225	–	1416.21
[1], x2 = 0.5458	–	1321
[1], x2 = 0.6601	–	1225.85
[1], x2 = 0.765	–	1131.91
[1], x2 = 0.8611	–	1039.57
[1], x2 = 0.9561	–	941.92
[2], x2 = 0.0775	0.0259	–
[2], x2 = 0.1619	0.0431	–
[2], x2 = 0.2431	0.0561	–
[2], x2 = 0.3197	0.0639	–
[2], x2 = 0.3909	0.0676	–
[2], x2 = 0.4536	0.0674	–
[2], x2 = 0.5079	0.0658	–
[2], x2 = 0.5103	0.0652	–
[2], x2 = 0.5486	0.0622	–
[2], x2 = 0.5612	0.062	–
[2], x2 = 0.5934	0.0591	–
[2], x2 = 0.6025	0.0577	–
[2], x2 = 0.6413	0.053	–
[2], x2 = 0.6919	0.0458	–
[2], x2 = 0.7451	0.0375	–
[2], x2 = 0.7998	0.0284	–
[2], x2 = 0.8546	0.0198	–
[2], x2 = 0.9082	0.012	–
[2], x2 = 0.9563	0.00528	–

BrCCCCCCBr [1,6-dibromohexane] + CCOC(=O)CC
Settings	excess molar enthalpy [kcal/mol]	mass density [kg/m3]
[1], x2 = 0.0785	–	1558.6
[1], x2 = 0.1542	–	1515.02
[1], x2 = 0.223	–	1474.07
[1], x2 = 0.2897	–	1432.85
[1], x2 = 0.3566	–	1390.07
[1], x2 = 0.4169	–	1350.15
[1], x2 = 0.5364	–	1266.98
[1], x2 = 0.595	–	1224.16
[1], x2 = 0.6523	–	1181.7
[1], x2 = 0.7055	–	1139.41
[1], x2 = 0.7573	–	1097.77
[1], x2 = 0.8052	–	1058.09
[1], x2 = 0.8583	–	1012.69
[1], x2 = 0.9041	–	972.41
[2], x2 = 0.0655	0.0105	–
[2], x2 = 0.1421	0.0184	–
[2], x2 = 0.2176	0.0235	–
[2], x2 = 0.2889	0.0262	–
[2], x2 = 0.3565	0.0268	–
[2], x2 = 0.4183	0.0255	–
[2], x2 = 0.4746	0.0226	–
[2], x2 = 0.5242	0.0188	–
[2], x2 = 0.5687	0.0148	–
[2], x2 = 0.5968	0.0125	–
[2], x2 = 0.6497	0.00894	–
[2], x2 = 0.7061	0.00605	–
[2], x2 = 0.7663	0.0043	–
[2], x2 = 0.8256	0.00308	–
[2], x2 = 0.8846	0.00189	–
[2], x2 = 0.9439	0.000693	–

BrCCCCCBr [1,5-dibromopentane] + CCCCC(=O)OCC
Settings	excess molar enthalpy [kcal/mol]	mass density [kg/m3]
[1], x2 = 0.0539	–	1645.46
[1], x2 = 0.1105	–	1595.11
[1], x2 = 0.1636	–	1548.32
[1], x2 = 0.2206	–	1498.77
[1], x2 = 0.3289	–	1405.86
[1], x2 = 0.3899	–	1354.43
[1], x2 = 0.4455	–	1307.95
[1], x2 = 0.5024	–	1260.98
[1], x2 = 0.5632	–	1211.27
[1], x2 = 0.5935	–	1186.69
[1], x2 = 0.6792	–	1117.97
[1], x2 = 0.7412	–	1068.93
[1], x2 = 0.803	–	1020.6
[1], x2 = 0.8672	–	970.91
[1], x2 = 0.9294	–	923.31
[2], x2 = 0.0537	0.00703	–
[2], x2 = 0.1124	0.012	–
[2], x2 = 0.1746	0.0158	–
[2], x2 = 0.2384	0.0178	–
[2], x2 = 0.3005	0.0179	–
[2], x2 = 0.3573	0.0158	–
[2], x2 = 0.4121	0.012	–
[2], x2 = 0.4619	0.00674	–
[2], x2 = 0.5075	0.00098	–
[2], x2 = 0.5483	-0.00344	–
[2], x2 = 0.5745	-0.00566	–
[2], x2 = 0.6374	-0.00863	–
[2], x2 = 0.7074	-0.01	–
[2], x2 = 0.7809	-0.00994	–
[2], x2 = 0.8572	-0.00848	–
[2], x2 = 0.9337	-0.00483	–

BrCCCCBr [1,4-dibromobutane] + CCOC(C)=O
Settings	excess molar enthalpy [kcal/mol]	mass density [kg/m3]
[1], x2 = 0.0713	–	1763.64
[1], x2 = 0.1362	–	1711.83
[1], x2 = 0.2057	–	1654.85
[1], x2 = 0.2657	–	1604.71
[1], x2 = 0.3922	–	1495.44
[1], x2 = 0.4539	–	1440.32
[1], x2 = 0.5154	–	1384.15
[1], x2 = 0.5749	–	1328.61
[1], x2 = 0.683	–	1224.74
[1], x2 = 0.7406	–	1167.52
[1], x2 = 0.7867	–	1121.03
[1], x2 = 0.8486	–	1057.13
[1], x2 = 0.9	–	1002.89
[1], x2 = 0.9494	–	949.81
[2], x2 = 0.0724	0.0259	–
[2], x2 = 0.1477	0.0417	–
[2], x2 = 0.2228	0.0516	–
[2], x2 = 0.2954	0.0559	–
[2], x2 = 0.3654	0.0562	–
[2], x2 = 0.4273	0.0538	–
[2], x2 = 0.4836	0.0497	–
[2], x2 = 0.5346	0.0447	–
[2], x2 = 0.5727	0.0394	–
[2], x2 = 0.6226	0.0329	–
[2], x2 = 0.6702	0.0265	–
[2], x2 = 0.7257	0.0205	–
[2], x2 = 0.7826	0.0143	–
[2], x2 = 0.8416	0.00927	–
[2], x2 = 0.8982	0.00521	–
[2], x2 = 0.9516	0.00241	–

BrCCBr [1,2-dibromoethane] + CCOC=O
Settings	excess molar enthalpy [kcal/mol]	mass density [kg/m3]
[1], x2 = 0.062	–	2094.82
[1], x2 = 0.1228	–	2022.36
[1], x2 = 0.1867	–	1945.54
[1], x2 = 0.2494	–	1869.83
[1], x2 = 0.3088	–	1797.46
[1], x2 = 0.366	–	1727.27
[1], x2 = 0.4251	–	1654.13
[1], x2 = 0.4893	–	1574.29
[1], x2 = 0.5444	–	1505.3
[1], x2 = 0.6044	–	1429.44
[1], x2 = 0.6588	–	1360.3
[1], x2 = 0.7175	–	1285.15
[1], x2 = 0.8304	–	1138.86
[1], x2 = 0.8871	–	1064.61
[1], x2 = 0.9405	–	994.23
[2], x2 = 0.0568	0.0286	–
[2], x2 = 0.1289	0.0522	–
[2], x2 = 0.1965	0.0704	–
[2], x2 = 0.2654	0.0861	–
[2], x2 = 0.3304	0.0957	–
[2], x2 = 0.3922	0.0993	–
[2], x2 = 0.4464	0.0988	–
[2], x2 = 0.497	0.0966	–
[2], x2 = 0.5357	0.0939	–
[2], x2 = 0.5433	0.0896	–
[2], x2 = 0.5813	0.0887	–
[2], x2 = 0.5831	0.0816	–
[2], x2 = 0.6341	0.0816	–
[2], x2 = 0.6895	0.0722	–
[2], x2 = 0.7525	0.0596	–
[2], x2 = 0.8186	0.0457	–
[2], x2 = 0.8841	0.0318	–
[2], x2 = 0.9442	0.016	–

BrCCCCCBr [1,5-dibromopentane] + CCOC=O
Settings	excess molar enthalpy [kcal/mol]	mass density [kg/m3]
[1], x2 = 0.089	–	1651.25
[1], x2 = 0.1775	–	1605.2
[1], x2 = 0.2567	–	1560.84
[1], x2 = 0.3412	–	1509.84
[1], x2 = 0.4134	–	1463.17
[1], x2 = 0.5374	–	1374.43
[1], x2 = 0.7024	–	1237.83
[1], x2 = 0.7951	–	1149.61
[1], x2 = 0.8844	–	1054.85
[1], x2 = 0.9227	–	1010.83
[2], x2 = 0.0896	0.0659	–
[2], x2 = 0.1866	0.108	–
[2], x2 = 0.279	0.138	–
[2], x2 = 0.3638	0.157	–
[2], x2 = 0.4389	0.166	–
[2], x2 = 0.5051	0.169	–
[2], x2 = 0.5631	0.166	–
[2], x2 = 0.6125	0.158	–
[2], x2 = 0.6372	0.153	–
[2], x2 = 0.6548	0.149	–
[2], x2 = 0.6837	0.142	–
[2], x2 = 0.6928	0.139	–
[2], x2 = 0.7324	0.128	–
[2], x2 = 0.7827	0.108	–
[2], x2 = 0.831	0.088	–
[2], x2 = 0.8797	0.065	–
[2], x2 = 0.9254	0.0385	–
[2], x2 = 0.966	0.0136	–
